This note sets out measurements from patent publication US20260345582A1, “PRODRUG FOR ANTI-AGING RELATED DISEASES AND USE METHOD THEREOF” (Beijing SunCell Bio-Medical Co., Ltd., priority 2022, published 2026).

Assay [1] has as its system A549 cells (human non-small cell lung cancer cell), induced senescent with Cisplatin. The assay is described as follows: in vitro killing of induced senescent A549 cells (CCK-8). It is filed as cell-based. An excerpt: A. The killing results of some selected compounds in the in vitro compound library screening on the induced senescent A549 cell model. Wherein, MZ-1, dBET6, ARV-825, I-BET726, I-BET151, and INCB057643 are all BET inhibitors; A1331852 and A1155463 are novel Bcl-xL inhibitors; Dasatinib, Quercetin, Fisetin, Curcumin are the familiar active drugs or natural products.
B. Comparison of the killing effects of three Bcl-xL inhibitors on the induced senescent A549 cell model. A549 represents the normal uninduced A549 cell group; and A549-CDDP represents the senescent A549 cell group induced with Cisplatin (CDDP) in vitro.
(§1) Induction of the Cellular Senescence

In assay [2] the test system is HEF cells (primary human embryonic skin fibroblast), induced senescent with Etoposide. Nature of the assay: in vitro killing of induced senescent HEF cells (CCK-8). It is filed as cell-based.
From the text: C. Comparison of the killing effects of three Bcl-xL inhibitors on the induced senescent HEF cell model. HEF represents the isolated early generation uninduced HEF cell group; and HEF-ETO represents the senescent HEF cell group induced with Etoposide (ETO) in vitro.
as §1

Assay [3] deals with mouse model of Bleomycin-induced pulmonary fibrosis. The assay is described as follows: lung specific gravity index in Bleomycin-induced pulmonary fibrosis. It is filed as in vivo, C57 mice. The note with it: i.p. four weeks; A13 2 mg/kg, A13bGa1 5 mg/kg; FIG. 5C. On the procedure:
(§2) A. Modelling of a mouse model of Bleomycin-induced pulmonary fibrosis, and the schematic diagram of treatment. Mice were modelled with Bleomycin administered via tracheal instillation on day 0, and the treatment with intraperitoneal injection of the drug was started on day 4. The drug was administered for 3 consecutive days per week, followed by a 4-day withdrawal, for 4 weeks.
C. Comparison of lung specific gravity index calculated for different groups of mice. After completion of drug administration according to the dosing protocol, the mice were executed and the lungs of the mice were taken and weighed to calculate the lung specific gravity index, lung index=the lung weight (g)/the body weight (g)×100%. A13 represents the A1331852 treatment group at a dose of 2 mg/kg; A13bGa1 represents prodrug treatment group at a dose of 5 mg/kg; VEH represents the vehicle treatment control group; and NC represents the saline tracheal instillation modelling control group. Each dot in the panel represents the result of the lung specific gravity index of 1 mouse, n=5 in the saline modelling control group, and n=6 in other groups. The statistical analysis was performed using unpaired T-test, ns indicates no statistical difference; with *p<0.05; and **p<0.01. […]

Assay [4] shares this test system. Nature of the assay: HE pathological changes in the lungs, Bleomycin-induced pulmonary fibrosis. It is filed as in vivo, C57 mice. The following applies: A13 2 mg/kg, A13bGa1 5 mg/kg; for inflammation and consolidation of the mouse lungs (HE pathology): i.p. four weeks, FIG. 5D and Table 1. On the procedure: as §2
D. Representative results of HE and Masson staining of the pathological sections of lungs taken from different groups of mice after execution. Normal represents the saline tracheal instillation modelling control group; Vehicle represents the vehicle administration control group; A13bGa1 represents the prodrug treatment group; A13 represents the A1331852 treatment group. Scale bar: 500 μm.
All drugs were mixed in 85% physiological saline, 5% DMSO (Sigma, D8418) and 10% Solutol HS 15 (Sigma, 42966), and administered to mice by intraperitoneal (i.p.) injection. To treat the bleomycin-injured young mice, A13 (2 mg/kg), A13bGa1 (5 mg/kg), or an empty vehicle control was administered three consecutive days per week for four weeks. A1331852 (abbreviated as A13) was purchased from MCE.
Bleomycin-Induced Pulmonary Fibrosis
Bleomycin was purchased from Selleck. As previously reported (Bivas-Benita et al., Eur J Pharm Biopharm 61, 214-218 (2005)), a transtracheal injection of bleomycin (2 mg/kg) was performed to the young male C57 mice (8-10 weeks old) to induce lung fibrosis. Drug treatment was initiated four days after modelling, and the drug was administered three consecutive days per week for four consecutive weeks, after which the mice were executed for material collection.
Histopathological Examination
All animals (including those found dead, dying, and euthanised) were autopsied, and the lung tissues were preserved. The lungs were separated, the fat and other tissues were removed, the surface fluid was absorbed using a filter paper, and the whole lungs were weighed (those found dead, dying, and euthanised) for calculation of the lung weight index. The right lung and bronchiole were fixed in 10% neutral buffered formalin solution, embedded in paraffin, sectioned, prepared into slices, and stained with HE for a histopathological and morphological observation of the lung. The degree of the lesions such as the inflammatory cell infiltration in the lung tissue were graded according to a 4-grade classification (slight, mild, moderate, severe) using a standard terminology for diagnosis and classification. The left lung tissue was clipped and stored temporarily below −60′C.

As for `Cc1c(-c2ccc(N3CCc4cccc(C(=O)Nc5nc6ccccc6s5)c4C3)nc2C(=O)O)cnn1CC12CC3CC(CC(C3)C1)C2` [Compound A13, 3-[1-(adamantan-1-ylmethyl)-5-methylpyrazol-4-yl]-6-{8-[(1,3-benzothiazol-2-yl)carbamoyl]-3,4-dihydro-1H-isoquinolin-2-yl}pyridine-2-carboxylic acid], the “selective killing effect on the senescent cells” value in assay [1] (A549-CDDP vs A549, FIG. 1B) was “selective killing effect on the senescent cells”; in assay [2] (HEF-ETO vs HEF, FIG. 1C), “selective killing effect on the senescent cells”. In assay [1] (induced senescent A549 cell model, FIG. 1A), the “senescent cell killing activity and selectivity, compound screening” value is “good senescent cell killing activity and selectivity in vitro”. The “lung specific gravity index (lung weight/body weight×100%)” value in assay [3] is “no improvement in the lung index”. For the same compound, the “inflammation and consolidation of the mouse lungs (HE pathology)” value in assay [4] is on record as “no improvement”.
With `Cc1c(-c2ccc(N3CCc4cccc(C(=O)Nc5nc6ccccc6s5)c4C3)nc2C(=O)OCc2ccc(O[C@@H]3O[C@H](CO)[C@H](O)[C@H](O)[C@H]3O)c([N+](=O)[O-])c2)cnn1CC12CC3CC(CC(C3)C1)C2` [Compound A13bGa1], the “killing of the senescent cells, efficiency and selectivity” value in assay [1] (A549 cells, lung-derived, FIG. 3E) was “highly efficient and selective in killing the senescent cells”. In assay [2] (HEF cells, human skin-derived fibroblasts, FIG. 3B), the “killing of the senescent cells, efficiency and selectivity” value was “highly efficient and selective in killing the senescent cells”. Also, in assay [3], the “lung specific gravity index (lung weight/body weight×100%)” value is on record as “recovered to the normal level”. The “inflammation and consolidation of the mouse lungs (HE pathology)” value in assay [4] is “significant improvement”. Also, in assay [4] (of 6 animals), the “Bleeding, alveolar/interstitial: mild (++)” value was 0 number of animals; the “Bleeding, alveolar/interstitial: moderate (+++)” value is reported as 0 number of animals; the “Bleeding, alveolar/interstitial: negative (−)” value is recorded as 3 number of animals; the “Bleeding, alveolar/interstitial: slight (+)” value is given as 3 number of animals. Moreover, in assay [4] (of 6 animals), the “Exudative oedema, alveolar: mild (++)” value is reported as 2 number of animals; the “Exudative oedema, alveolar: moderate (+++)” value is on record as 1 number of animals; the “Exudative oedema, alveolar: negative (−)” value is reported as 2 number of animals; the “Exudative oedema, alveolar: severe (++++)” value is on record as 0 number of animals. Also, in assay [4] (of 6 animals), the “Exudative oedema, alveolar: slight (+)” value was 1 number of animals; the “The infiltration of the inflammatory cells: mild (++)” value was 0 number of animals; the “The infiltration of the inflammatory cells: moderate (+++)” value is reported as 1 number of animals; the “The infiltration of the inflammatory cells: negative (−)” value is reported as 4 number of animals. In assay [4] (of 6 animals), the “The infiltration of the inflammatory cells: slight (+)” value is 1 number of animals; the “Thickening and consolidation of the pulmonary septum: mild (++)” value is listed as 5 number of animals; the “Thickening and consolidation of the pulmonary septum: moderate (+++)” value is on record as 0 number of animals; the “Thickening and consolidation of the pulmonary septum: negative (−)” value is 1 number of animals. For the same compound, in assay [4] (of 6 animals), the “Thickening and consolidation of the pulmonary septum: severe (++++)” value is 0 number of animals; the “Thickening and consolidation of the pulmonary septum: slight (+)” value is recorded as 0 number of animals.
